Test results reported in patent US7118895B2, “Process for producing aglycon by using diglycosidase and flavor-improved food containing the aglycon and converting agent to be used in the process” (Amano Enzyme Inc., priority 2000, dated 2006).

Test system: Crude diglycosidase
Assay: Examination of temperature in the conversion into isoflavone aglycons by diglycosidase using soybean materials
Type: biochemical, Penicillium multicolor IAM7153
Design: Decomposition efficiency of glycitin family in roasted soy flour / Decomposition efficiency of daidzin family in roasted soy flour / Decomposition efficiency of genistin family in soymilk / Decomposition efficiency of daidzin family in soymilk / Decomposition efficiency of glycitin family in defatted soybean / Decomposition efficiency of daidzin family in defatted soybean: concentration or dose not given beside the values
Method: Into 400 μL of 20 mM acetate buffer of pH 4.0 was suspended 50 mg of each of various soybean materials (roasted soy flour (manufactured by Fuji Shokuryo K.K.), soymilk (manufactured by Gitoh Shokuhin K.K.), defatted soybean (manufactured by Fuji Seiyu K.K.), concentrated soybean protein (manufactured by Fuji Seiyu K.K.)), whereby a substrate solution was prepared. Crude diglycosidase was diluted with 20 mM acetate buffer of pH 4.0 to be the glycosidase activity of 1.88 AU/mL. Fifty μL of the enzyme solution was mixed with the substrate solution and the whole was reacted at 80, 65, 55, 45, 37, or 30° C. at the total volume of 500 μL. To the reaction mixture was added 700 μL of ethanol after 0, 1, 3, and 6 hours of the reaction. After stirring and ultrasonication, the mixture was subjected to centrifugal separation at 15,000 rpm and 4° C. for 10 minutes. The supernatant was filtered through a filter and the existence of isoflavone glycosides and aglycon isoflavones contained in the reaction mixture was detected by HLPC.

[1] = 30 °C, heat treatment of enzyme: no, 0 h
[2] = 30 °C, heat treatment of enzyme: no, 1 h
[3] = 30 °C, heat treatment of enzyme: no, 3 h
[4] = 30 °C, heat treatment of enzyme: no, 6 h
[5] = 30 °C, heat treatment of enzyme: yes, 6 h
[6] = 45 °C, heat treatment of enzyme: no, 0 h
[7] = 45 °C, heat treatment of enzyme: no, 1 h
[8] = 45 °C, heat treatment of enzyme: no, 3 h
[9] = 45 °C, heat treatment of enzyme: no, 6 h
[10] = 45 °C, heat treatment of enzyme: yes, 6 h
[11] = 55 °C, heat treatment of enzyme: no, 0 h
[12] = 55 °C, heat treatment of enzyme: no, 1 h
[13] = 55 °C, heat treatment of enzyme: no, 3 h
[14] = 55 °C, heat treatment of enzyme: no, 6 h
[15] = 55 °C, heat treatment of enzyme: yes, 6 h
[16] = 65 °C, heat treatment of enzyme: no, 0 h
[17] = 65 °C, heat treatment of enzyme: no, 1 h
[18] = 65 °C, heat treatment of enzyme: no, 3 h
[19] = 65 °C, heat treatment of enzyme: no, 6 h
[20] = 65 °C, heat treatment of enzyme: yes, 6 h
[21] = 80 °C, heat treatment of enzyme: no, 0 h
[22] = 80 °C, heat treatment of enzyme: no, 1 h
[23] = 80 °C, heat treatment of enzyme: no, 3 h
[24] = 80 °C, heat treatment of enzyme: no, 6 h
[25] = 80 °C, heat treatment of enzyme: yes, 6 h

Structure (SMILES): COc1cc2c(=O)c(-c3ccc(O)cc3)coc2cc1O[C@@H]1O[C@H](COC(C)=O)[C@@H](O)[C@H](O)[C@H]1O [acetylglycitin, 6″-O-acetylglycitin]
- Decomposition efficiency of glycitin family in defatted soybean (30° C., heat treatment of enzyme no, reaction time 0 h): not detected
- Decomposition efficiency of glycitin family in defatted soybean (30° C., heat treatment of enzyme no, reaction time 1 h): not detected
- Decomposition efficiency of glycitin family in defatted soybean (30° C., heat treatment of enzyme no, reaction time 3 h): not detected
- Decomposition efficiency of glycitin family in defatted soybean (30° C., heat treatment of enzyme no, reaction time 6 h): not detected
- Decomposition efficiency of glycitin family in defatted soybean (30° C., heat treatment of enzyme yes, reaction time 6 h): not detected
- Decomposition efficiency of glycitin family in concentrated soybean protein [1]: 36.0%
- Decomposition efficiency of glycitin family in roasted soy flour [1]: 38.7%
- Decomposition efficiency of glycitin family in soymilk [1]: not detected
- Decomposition efficiency of glycitin family in concentrated soybean protein [2]: 35.0%
- Decomposition efficiency of glycitin family in roasted soy flour [2]: 33.8%
- Decomposition efficiency of glycitin family in soymilk [2]: not detected
- Decomposition efficiency of glycitin family in concentrated soybean protein [3]: 33.4%
- Decomposition efficiency of glycitin family in roasted soy flour [3]: 33.2%
- Decomposition efficiency of glycitin family in soymilk [3]: not detected
- Decomposition efficiency of glycitin family in concentrated soybean protein [4]: 30.8%
- Decomposition efficiency of glycitin family in roasted soy flour [4]: 19.1%
- Decomposition efficiency of glycitin family in soymilk [4]: not detected
- Decomposition efficiency of glycitin family in concentrated soybean protein [5]: 35.4%
- Decomposition efficiency of glycitin family in roasted soy flour [5]: 37.5%
- Decomposition efficiency of glycitin family in soymilk [5]: not detected
- Decomposition efficiency of glycitin family in defatted soybean (45° C., heat treatment of enzyme no, reaction time 0 h): not detected
- Decomposition efficiency of glycitin family in defatted soybean (45° C., heat treatment of enzyme no, reaction time 1 h): not detected
- Decomposition efficiency of glycitin family in defatted soybean (45° C., heat treatment of enzyme no, reaction time 3 h): not detected
- Decomposition efficiency of glycitin family in defatted soybean (45° C., heat treatment of enzyme no, reaction time 6 h): not detected
- Decomposition efficiency of glycitin family in defatted soybean (45° C., heat treatment of enzyme yes, reaction time 6 h): not detected
- Decomposition efficiency of glycitin family in concentrated soybean protein [6]: 35.9%
- Decomposition efficiency of glycitin family in roasted soy flour [6]: 38.3%
- Decomposition efficiency of glycitin family in soymilk [6]: not detected
- Decomposition efficiency of glycitin family in concentrated soybean protein [7]: 34.1%
- Decomposition efficiency of glycitin family in roasted soy flour [7]: 27.4%
- Decomposition efficiency of glycitin family in soymilk [7]: not detected
- Decomposition efficiency of glycitin family in concentrated soybean protein [8]: 31.0%
- Decomposition efficiency of glycitin family in roasted soy flour [8]: 20.3%
- Decomposition efficiency of glycitin family in soymilk [8]: not detected
- Decomposition efficiency of glycitin family in concentrated soybean protein [9]: 27.1%
- Decomposition efficiency of glycitin family in roasted soy flour [9]: 9.1%
- Decomposition efficiency of glycitin family in soymilk [9]: not detected
- Decomposition efficiency of glycitin family in concentrated soybean protein [10]: 35.0%
- Decomposition efficiency of glycitin family in roasted soy flour [10]: 36.8%
- Decomposition efficiency of glycitin family in soymilk [10]: not detected
- Decomposition efficiency of glycitin family in defatted soybean (55° C., heat treatment of enzyme no, reaction time 0 h): not detected
- Decomposition efficiency of glycitin family in defatted soybean (55° C., heat treatment of enzyme no, reaction time 1 h): not detected
- Decomposition efficiency of glycitin family in defatted soybean (55° C., heat treatment of enzyme no, reaction time 3 h): not detected
- Decomposition efficiency of glycitin family in defatted soybean (55° C., heat treatment of enzyme no, reaction time 6 h): not detected
- Decomposition efficiency of glycitin family in defatted soybean (55° C., heat treatment of enzyme yes, reaction time 6 h): not detected
- Decomposition efficiency of glycitin family in concentrated soybean protein [11]: 36.0%
- Decomposition efficiency of glycitin family in roasted soy flour [11]: 39.1%
- Decomposition efficiency of glycitin family in soymilk [11]: not detected
- Decomposition efficiency of glycitin family in concentrated soybean protein [12]: 33.9%
- Decomposition efficiency of glycitin family in roasted soy flour [12]: 30.1%
- Decomposition efficiency of glycitin family in soymilk [12]: not detected
- Decomposition efficiency of glycitin family in concentrated soybean protein [13]: 29.8%
- Decomposition efficiency of glycitin family in roasted soy flour [13]: 12.1%
- Decomposition efficiency of glycitin family in soymilk [13]: not detected
- Decomposition efficiency of glycitin family in concentrated soybean protein [14]: 26.8%
- Decomposition efficiency of glycitin family in roasted soy flour [14]: 6.0%
- Decomposition efficiency of glycitin family in soymilk [14]: not detected
- Decomposition efficiency of glycitin family in concentrated soybean protein [15]: 35.3%
- Decomposition efficiency of glycitin family in roasted soy flour [15]: 37.3%
- Decomposition efficiency of glycitin family in soymilk [15]: not detected
- Decomposition efficiency of glycitin family in defatted soybean (65° C., heat treatment of enzyme no, reaction time 0 h): not detected
- Decomposition efficiency of glycitin family in defatted soybean (65° C., heat treatment of enzyme no, reaction time 1 h): not detected
- Decomposition efficiency of glycitin family in defatted soybean (65° C., heat treatment of enzyme no, reaction time 3 h): not detected
- Decomposition efficiency of glycitin family in defatted soybean (65° C., heat treatment of enzyme no, reaction time 6 h): not detected
- Decomposition efficiency of glycitin family in defatted soybean (65° C., heat treatment of enzyme yes, reaction time 6 h): not detected
- Decomposition efficiency of glycitin family in concentrated soybean protein [16]: 36.0%
- Decomposition efficiency of glycitin family in roasted soy flour [16]: 38.7%
- Decomposition efficiency of glycitin family in soymilk [16]: not detected
- Decomposition efficiency of glycitin family in concentrated soybean protein [17]: 35.7%
- Decomposition efficiency of glycitin family in roasted soy flour [17]: 34.5%
- Decomposition efficiency of glycitin family in soymilk [17]: not detected
- Decomposition efficiency of glycitin family in concentrated soybean protein [18]: 35.5%
- Decomposition efficiency of glycitin family in roasted soy flour [18]: 31.0%
- Decomposition efficiency of glycitin family in soymilk [18]: not detected
- Decomposition efficiency of glycitin family in concentrated soybean protein [19]: 35.8%
- Decomposition efficiency of glycitin family in roasted soy flour [19]: 29.0%
- Decomposition efficiency of glycitin family in soymilk [19]: not detected
- Decomposition efficiency of glycitin family in concentrated soybean protein [20]: 35.7%
- Decomposition efficiency of glycitin family in roasted soy flour [20]: 39.3%
- Decomposition efficiency of glycitin family in soymilk [20]: not detected
- Decomposition efficiency of glycitin family in defatted soybean (80° C., heat treatment of enzyme no, reaction time 0 h): not detected
- Decomposition efficiency of glycitin family in defatted soybean (80° C., heat treatment of enzyme no, reaction time 1 h): not detected
- Decomposition efficiency of glycitin family in defatted soybean (80° C., heat treatment of enzyme no, reaction time 3 h): not detected
- Decomposition efficiency of glycitin family in defatted soybean (80° C., heat treatment of enzyme no, reaction time 6 h): not detected
- Decomposition efficiency of glycitin family in defatted soybean (80° C., heat treatment of enzyme yes, reaction time 6 h): not detected
- Decomposition efficiency of glycitin family in concentrated soybean protein [21]: 35.9%
- Decomposition efficiency of glycitin family in roasted soy flour [21]: 38.3%
- Decomposition efficiency of glycitin family in soymilk [21]: not detected
- Decomposition efficiency of glycitin family in concentrated soybean protein [22]: 36.0%
- Decomposition efficiency of glycitin family in roasted soy flour [22]: 40.1%
- Decomposition efficiency of glycitin family in soymilk [22]: not detected
- Decomposition efficiency of glycitin family in concentrated soybean protein [23]: 35.7%
- Decomposition efficiency of glycitin family in roasted soy flour [23]: 38.4%
- Decomposition efficiency of glycitin family in soymilk [23]: not detected
- Decomposition efficiency of glycitin family in concentrated soybean protein [24]: 35.2%
- Decomposition efficiency of glycitin family in roasted soy flour [24]: 35.7%
- Decomposition efficiency of glycitin family in soymilk [24]: not detected
- Decomposition efficiency of glycitin family in concentrated soybean protein [25]: 34.8%
- Decomposition efficiency of glycitin family in roasted soy flour [25]: 39.4%
- Decomposition efficiency of glycitin family in soymilk [25]: not detected
